{"source": "patent US20090074668A1", "about": "“Vldlr-/- mouse models and related methods” (priority 2007, published 2009)", "origin": "cited, not measured here", "tested_on": "VEGF", "details": "intraocular administration; in vitro and in vivo", "data": [{"smiles": "CC1(C)O[C@@H]2C[C@H]3[C@@H]4CCC5=CC(=O)C=C[C@]5(C)[C@@]4(F)[C@@H](O)C[C@]3(C)[C@]2(C(=O)CO)O1", "note": "[Kenalog]", "values": [{"measurement": "effect on VEGF levels", "value": "reduce VEGF levels"}]}]}
